Assay in all cases: relative viability (nuclei count vs DMSO), 5 days (fraction); higher = more cells survive
Compound in experiment [1]: CS(=O)(=O)c1ccc(-c2cnc(N)c(C(=O)Nc3ccccc3)n2)cc1 [VE-821] + CC(=O)c1c(C)c2cnc(Nc3ccc(N4CCNCC4)cn3)nc2n(C2CCCC2)c1=O [Palbociclib] (partner 0.5 µM)
A digest of the protocol: (§1)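 Medians of duplicate plates are given as relative viability. That measure is the nuclei count in treated wells divided by the count in vehicle wells. Counts were taken on 4× images of lung cancer cell lines in 1536-well plates, 5 days after pin-tool dosing the day after seeding with one drug alone or a fixed anchor-drug dose plus five library-drug doses (not always all listed) in √10 steps.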

Compound in experiment [2]: CS(=O)(=O)c1ccc(-c2cnc(N)c(C(=O)Nc3ccccc3)n2)cc1 [VE-821] + CC(C)C[C@H](NC(=O)[C@H](Cc1ccccc1)NC(=O)c1cnccn1)B(O)O [Bortezomib] (partner 0.002 µM)
The essentials:
as §1

Compound in experiment [3]: CS(=O)(=O)c1ccc(C(=O)Nc2ccc(Cl)c(-c3ccccn3)c2)c(Cl)c1 [Vismodegib] + C[C@]1(O)C[C@@H](c2nc(-c3ccc4ccc(-c5ccccc5)nc4c3)c3c(N)nccn32)C1 [Linsitinib] (partner 1 µM)
A digest of the protocol: as §1

Compound in experiment [4]: N#CC[C@H](C1CCCC1)n1cc(-c2ncnc3[nH]ccc23)cn1 [Ruxolitinib] + COc1cccc2cc(-c3nc([C@H]4CC[C@H](C(=O)O)CC4)n4ncnc(N)c34)[nH]c12 [OSI-027] (partner 0.5 µM)
A digest of the protocol: as §1

With NCI-H3122, the relative viability was found to be 0.196 in experiment [1] (first compound 0.08 µM); 0.187 in experiment [1] (first compound 0.253 µM); 0.166 in experiment [1] (first compound 0.8 µM); 0.225 in experiment [1] (first compound 2.53 µM); 0.227 in experiment [1] (first compound 8 µM); 1 in experiment [2] (first compound 0.08 µM). For the same cell line, the relative viability came to 1.02 in experiment [2] (first compound 0.253 µM); 1.01 in experiment [2] (first compound 0.8 µM); 1.02 in experiment [2] (first compound 2.53 µM); 1 in experiment [2] (first compound 8 µM); 1.03 in experiment [3] (first compound 0.08 µM); 1.01 in experiment [3] (first compound 0.253 µM). Also, the relative viability turned out to be 1.01 in experiment [3] (first compound 0.8 µM); 0.924 in experiment [3] (first compound 2.53 µM); 0.965 in experiment [3] (first compound 8 µM); 0.296 in experiment [4] (first compound 0.253 µM); 1.22 in experiment [4] (first compound 0.8 µM); 0.51 in experiment [4] (first compound 2.53 µM). The relative viability in experiment [4] (first compound 8 µM) stood at 0.569.
As for PC-3 [JPC-3], the relative viability in experiment [1] (first compound 0.08 µM) came to 0.266; in experiment [1] (first compound 0.253 µM), 0.478; in experiment [1] (first compound 0.8 µM) it was 0.58; in experiment [1] (first compound 2.53 µM), 0.54; in experiment [1] (first compound 8 µM), 0.56; in experiment [2] (first compound 0.08 µM) it was 0.871. For the same cell line, the relative viability was 0.884 in experiment [2] (first compound 0.253 µM); 0.932 in experiment [2] (first compound 0.8 µM); 0.884 in experiment [2] (first compound 2.53 µM); 0.842 in experiment [2] (first compound 8 µM); 0.934 in experiment [3] (first compound 0.08 µM); 0.941 in experiment [3] (first compound 0.253 µM). The relative viability in experiment [3] (first compound 0.8 µM) is 1.04; in experiment [3] (first compound 2.53 µM), 0.988; in experiment [3] (first compound 8 µM), 0.933; in experiment [4] (first compound 0.08 µM) it was 0.756; in experiment [4] (first compound 0.253 µM), 0.702; in experiment [4] (first compound 0.8 µM), 0.811. Further, the relative viability was determined as 0.704 in experiment [4] (first compound 2.53 µM) and 0.672 in experiment [4] (first compound 8 µM).
PC-14: the relative viability in experiment [1] (first compound 0.08 µM) stood at 0.648; in experiment [1] (first compound 0.253 µM), 0.46; in experiment [1] (first compound 0.8 µM), 0.455; in experiment [1] (first compound 2.53 µM), 0.351; in experiment [1] (first compound 8 µM), 0.169; in experiment [2] (first compound 0.08 µM), 1.02. The relative viability was found to be 0.846 in experiment [2] (first compound 0.253 µM); 0.855 in experiment [2] (first compound 0.8 µM); 0.871 in experiment [2] (first compound 2.53 µM); 0.899 in experiment [2] (first compound 8 µM); 0.897 in experiment [3] (first compound 0.08 µM); 0.911 in experiment [3] (first compound 0.253 µM). Moreover, the relative viability came out at 0.982 in experiment [3] (first compound 0.8 µM); 0.899 in experiment [3] (first compound 2.53 µM); 0.998 in experiment [3] (first compound 8 µM); 0.949 in experiment [4] (first compound 0.253 µM); 1.22 in experiment [4] (first compound 0.8 µM); 0.608 in experiment [4] (first compound 2.53 µM). For the same cell line, in experiment [4] (first compound 8 µM), the relative viability was 0.543.
As for RERF-LC-KJ, the relative viability in experiment [1] (first compound 0.08 µM) worked out at 1.2; in experiment [1] (first compound 0.253 µM) it was 1.01; in experiment [1] (first compound 0.8 µM), 0.973; in experiment [1] (first compound 2.53 µM), 0.929; in experiment [1] (first compound 8 µM), 0.792; in experiment [2] (first compound 0.08 µM), 1.15. For the same cell line, the relative viability in experiment [2] (first compound 0.253 µM) came out at 1.13; in experiment [2] (first compound 0.8 µM), 0.957; in experiment [2] (first compound 2.53 µM) it was 1.03; in experiment [2] (first compound 8 µM), 0.82; in experiment [3] (first compound 0.08 µM), 0.846; in experiment [3] (first compound 0.253 µM), 0.922. In addition, the relative viability in experiment [3] (first compound 0.8 µM) stood at 0.796; in experiment [3] (first compound 2.53 µM) it was 0.823; in experiment [3] (first compound 8 µM), 0.839; in experiment [4] (first compound 0.08 µM), 0.56; in experiment [4] (first compound 0.253 µM), 0.442; in experiment [4] (first compound 0.8 µM), 0.685. For the same cell line, the relative viability stood at 0.537 in experiment [4] (first compound 2.53 µM) and 0.536 in experiment [4] (first compound 8 µM).
As to SK-LU-1, the relative viability in experiment [1] (first compound 0.08 µM) is 0.408; in experiment [1] (first compound 0.253 µM), 0.424; in experiment [1] (first compound 0.8 µM), 0.323; in experiment [1] (first compound 2.53 µM), 0.376; in experiment [1] (first compound 8 µM), 0.261; in experiment [2] (first compound 0.08 µM) it was 1.28. Moreover, the relative viability turned out to be 1.13 in experiment [2] (first compound 0.253 µM); 0.99 in experiment [2] (first compound 0.8 µM); 1.12 in experiment [2] (first compound 2.53 µM); 1.21 in experiment [2] (first compound 8 µM); 1.35 in experiment [3] (first compound 0.08 µM); 1.06 in experiment [3] (first compound 0.253 µM). The relative viability in experiment [3] (first compound 0.8 µM) came to 1.23; in experiment [3] (first compound 2.53 µM), 0.693; in experiment [3] (first compound 8 µM), 1.13; in experiment [4] (first compound 0.08 µM) it was 0.413; in experiment [4] (first compound 0.253 µM), 0.36; in experiment [4] (first compound 0.8 µM) it was 0.393. For the same cell line, the relative viability in experiment [4] (first compound 2.53 µM) is 0.295; in experiment [4] (first compound 8 µM) it was 0.291.
With SW 1573, the relative viability in experiment [1] (first compound 0.08 µM) stood at 0.419; in experiment [1] (first compound 0.253 µM) it was 0.439; in experiment [1] (first compound 0.8 µM), 0.449; in experiment [1] (first compound 2.53 µM), 0.353; in experiment [1] (first compound 8 µM), 0.315; in experiment [2] (first compound 0.08 µM) it was 1.23. Also, the relative viability in experiment [2] (first compound 0.253 µM) turned out to be 1.05; in experiment [2] (first compound 0.8 µM) it was 1.15; in experiment [2] (first compound 2.53 µM) it was 1.15; in experiment [2] (first compound 8 µM), 1.01; in experiment [3] (first compound 0.08 µM) it was 0.823; in experiment [3] (first compound 0.253 µM), 0.728. The relative viability in experiment [3] (first compound 0.8 µM) was 0.789; in experiment [3] (first compound 2.53 µM) it was 0.64; in experiment [3] (first compound 8 µM) it was 0.821; in experiment [4] (first compound 0.08 µM), 0.607; in experiment [4] (first compound 0.253 µM), 0.482; in experiment [4] (first compound 0.8 µM) it was 0.815. Also, the relative viability is 0.386 in experiment [4] (first compound 2.53 µM) and 0.573 in experiment [4] (first compound 8 µM).

Source of the values: the supplement of paper PMC10307832.
